≈ marks a conversion by molar mass, not a printed value. Where “and” joins values, the source holds several entries; their conditions need not be identical. Equal values may be shown once. Read-outs that look alike come from different tables or passages of the source.
Tests used:
FLT3 [1] = target: T1, FLT3 (Homo sapiens, UniProt P36888); design: method as in PMID 20550212, PMID 23172777, PMID 24665000; details: previously reported leads 1, 2, 3; cited from earlier work
T1 construct: FLT3 kinase catalytic domain (residues Tyr567-Ser993); made in house; host or cells: Sf9 insect cells (baculovirus, pBac-PAK8-GST-FLT3-KD)
T1 sequence (P36888 567-993): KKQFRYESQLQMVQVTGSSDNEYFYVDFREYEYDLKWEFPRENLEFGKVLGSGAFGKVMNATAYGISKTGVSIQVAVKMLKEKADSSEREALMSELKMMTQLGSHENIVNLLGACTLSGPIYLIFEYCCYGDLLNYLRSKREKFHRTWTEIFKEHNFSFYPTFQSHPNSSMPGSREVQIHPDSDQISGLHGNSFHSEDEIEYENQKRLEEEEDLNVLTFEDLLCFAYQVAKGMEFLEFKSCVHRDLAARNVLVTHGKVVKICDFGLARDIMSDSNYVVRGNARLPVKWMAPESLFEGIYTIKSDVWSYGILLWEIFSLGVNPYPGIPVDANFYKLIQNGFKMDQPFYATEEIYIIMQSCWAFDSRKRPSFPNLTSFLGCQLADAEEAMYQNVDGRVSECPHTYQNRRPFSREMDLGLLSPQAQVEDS

AURKA = target: T2, AURKA (Homo sapiens, UniProt O14965); test: AURKA inhibition assay (Kinase-Glo); assay type: biochemical; details: for IC50: mean of at least two independent experiments, within ±15%; for selectivity for AURKA over FLT3: from enzyme IC50
T2 construct: recombinant GST-AURKA (residues Ser123-Ser401) containing the kinase domain; GST (N); made in house; host or cells: Sf9 insect cells
T2 sequence (O14965 123-401): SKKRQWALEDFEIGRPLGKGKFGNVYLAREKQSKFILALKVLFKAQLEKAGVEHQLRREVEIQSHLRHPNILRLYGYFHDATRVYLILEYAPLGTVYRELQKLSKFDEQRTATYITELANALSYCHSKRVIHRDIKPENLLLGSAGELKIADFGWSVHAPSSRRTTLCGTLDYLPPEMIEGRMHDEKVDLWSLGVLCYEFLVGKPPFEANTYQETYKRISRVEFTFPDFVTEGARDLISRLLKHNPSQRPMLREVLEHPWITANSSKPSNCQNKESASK
Experimental: AURKA assay was conducted as previously described. Briefly, the recombinant GST-AURKA (residues Ser123-Ser401) containing the kinase domain was expressed in Sf9 insect cells.
Following incubation, 50 μL Kinase-Glo Plus Reagent (Promega, Madison, WI, USA) was added, and the mixture was incubated at 25°C for 20 min.

FLT3 [2] = target: T1, FLT3; test: FLT3 kinase inhibition assay (Kinase-Glo); assay type: biochemical; details: for IC50: mean of at least two independent experiments, within ±15%; for selectivity for FLT3 over AURKA: from enzyme IC50
Experimental: The FLT3 assay was conducted as previously described. Briefly, GST-FLT3-KD^WT containing the FLT3 kinase catalytic domain (residues Tyr567-Ser993) was expressed in Sf9 insect cells transfected with the baculovirus containing pBac-PAK8-GST-FLT3-KD plasmid.
(§1) Following incubation, 50 μL Kinase-Glo Plus Reagent (Promega, Madison, WI, USA) was added, and the mixture was incubated at 25°C for 20 min. A 70 μL aliquot of each reaction mixture was transferred to a black microliter plate, and luminescence was measured on a Wallac Vector 1420 multilabel counter (PerkinElmer, Shelton, CT, USA).

MOLM-13 cells = test: MTS cell viability assay, MOLM-13; assay type: cell-based, human; details: MTS, 72 h, AML-FLT3-ITD (heterozygous), supplement values ± SEM, read-out: MOLM-13 EC50
Experimental: (§2) The MTS cell viability assay was conducted as previously described. The MOLM-13 human leukemia cell line was obtained from the German Resource Centre for Biological Material (DSMZ, Braunschweig, Germany); the MV4-11 cell line was purchased from the American Type Culture Collection (ATCC, Manassas, VA, USA). […] To determine cell viability after drug treatment, assay for MOLM-13 and MV4-11 was performed by seeding 10000 cells per well in a 96-well culture plate. […] After 16 h, cells were then treated with vehicle or various concentrations of compound in medium for 72 h. Viable cells were quantified using the MTS method (Promega, Madison, WI, USA) according to the manufacturer's recommended protocol. Results were determined by measuring the absorbance at 490 nm using a plate reader (Victor2; PerkinElmer, Shelton, CT, USA).

MV4-11 cells = test: MTS cell viability assay, MV4-11; assay type: cell-based, human; details: MTS, 72 h, AML-FLT3-ITD (homozygous), supplement values ± SEM, read-out: MV4-11 EC50
Experimental: as §2

[3] = test system: Detroit 551 (human normal skin fibroblast cells); test: MTS cell viability assay, Detroit-551; assay type: cell-based; details: 72 h
Experimental: The MTS cell viability assay was conducted as previously described. The MOLM-13 human leukemia cell line was obtained from the German Resource Centre for Biological Material (DSMZ, Braunschweig, Germany); the MV4-11 cell line was purchased from the American Type Culture Collection (ATCC, Manassas, VA, USA). Both the leukemia cell lines were maintained in RPMI 1640 medium supplemented with 10% fetal bovine serum (FBS), 10 UmL^-1 penicillin, and […] streptomycin at 37°C and 5% CO2. The Detroit-551, COLO205, and Mia-PaCa2 cell lines were purchased from the American Type Culture Collection (ATCC, Manassas, VA, USA) and cultured according to instructions of ATCC. To determine cell viability after drug treatment, assay for MOLM-13 and MV4-11 was performed by seeding 10000 cells per well in a 96-well culture plate. Detroit-551, COLO205, and Mia-PaCa2 were seeded at density of 2500, 4000, and 3750 cells per well, respectively. After 16 h, cells were then treated with vehicle or various concentrations of compound in medium for 72 h. Viable cells were quantified using the MTS method (Promega, Madison, WI, USA) according to the manufacturer's recommended protocol. Results were determined by measuring the absorbance at 490 nm using a plate reader (Victor2; PerkinElmer, Shelton, CT, USA).

Aqueous solubility = assay type: physicochemical; details: in water
AURKB = AURKB (Homo sapiens, UniProt Q96GD4); test: AURKB inhibition assay (Kinase-Glo); assay type: biochemical; design: full length His-tagged Aurora-B (residues M1∼A344); His; purchased Invitrogen PV6130; details: 500 nM; duplicate determination
AURKB, sequence (Q96GD4 whole entry): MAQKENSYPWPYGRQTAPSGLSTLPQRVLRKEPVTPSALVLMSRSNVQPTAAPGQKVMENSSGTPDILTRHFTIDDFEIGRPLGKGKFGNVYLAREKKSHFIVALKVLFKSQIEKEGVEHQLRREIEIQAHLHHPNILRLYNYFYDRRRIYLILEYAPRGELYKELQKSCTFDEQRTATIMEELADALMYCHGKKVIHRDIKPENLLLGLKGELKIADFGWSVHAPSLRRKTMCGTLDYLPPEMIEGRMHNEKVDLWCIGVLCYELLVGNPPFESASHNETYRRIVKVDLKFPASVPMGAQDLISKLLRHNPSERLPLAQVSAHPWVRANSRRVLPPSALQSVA
Experimental: AURKB assay was conducted as previously described. Briefly, the recombinant full length His-tagged Aurora-B (residues M1∼A344) was purchased from Invitrogen (Catalog number: PV6130). The kinase assay was carried out in 96-well plates with the tested compound in reaction solution (50 mM Tris-HCl pH 7.4, 10 mM NaCl, 10 mM MgCl2, 0.01% BSA, 5 mM ATP, 1 mM DTT and 15 mM tetra(LRRASLG) peptide, and 40 ng recombinant Aurora-B) at 30°C for 180 min.
as §1

HCC827 cells = test: Anti-proliferative activity, HCC827; assay type: cell-based; details: Homo sapiens, HCC827; NSCLC-EGFR L858R; supplement values ± SEM; read-out: HCC827 EC50
RS4-11 cells = test: Anti-proliferative activity, RS4-11; assay type: cell-based; details: Homo sapiens, RS4-11; ALL-wt-FLT3 (homozygous); supplement values ± SEM; read-out: RS4-11 EC50
H1975 cells = test: Anti-proliferative activity, H1975; assay type: cell-based; details: Homo sapiens, NCI-H1975; NSCLC-EGFR LR/TM; supplement values ± SEM; read-out: H1975 EC50
H2228 cells = test: Anti-proliferative activity, H2228; assay type: cell-based; details: Homo sapiens, NCI-H2228; NSCLC-ALK; supplement values ± SEM; read-out: H2228 EC50
CL-97 cells = test: Anti-proliferative activity, CL-97; assay type: cell-based, human; details: CL97; Human Lung Cancer; supplement values ± SEM; read-out: CL-97 EC50
HCT-116 cells = test: Anti-proliferative activity, HCT-116; assay type: cell-based, human; details: HCT-116; Human Colon Cancer; supplement values ± SEM; read-out: HCT-116 EC50
Mia-PaCa2 cells = test: Anti-proliferative activity, Mia-PaCa2; assay type: cell-based, human; details: Homo sapiens, MIA PaCa-2, Human Pancreatic Cancer; supplement values ± SEM

Row | SMILES | IC50 (AURKA) | IC50 (FLT3 [2]) | EC50 (MOLM-13 cells; Homo sapiens, MOLM-13, 72 h) | EC50 (MV4-11 cells; Homo sapiens, MV4-11, 72 h) | EC50 [3] | inhibition at 0.5 µM (AURKB) | further results
1 | O=C(Nc1ccccc1)Nc1ccc(CCNc2ncnc3oc(-c4ccccc4)c(-c4ccccc4)c23)cc1 [Compound 1] | – | – | – | – | – | – | IC50 (FLT3 [1]): > 10000 nM
2 | COc1cc2ncnc(NCCc3cnc(NC(=O)Nc4cccc(Cl)c4)s3)c2cc1OC [Compound 4] | 5 nM and 4.9 nM | 127 nM | ~40 nM | ~40 nM | 9100 nM | 100% | EC50 (MOLM-13 cells): 20 nM; EC50 (MV4-11 cells): 43 nM; solubility (Aqueous solubility): 0.452 µg/mL (≈ 0.932 µM)
3 | O=C(Nc1cccc(Cl)c1)Nc1ncc(CCNc2ncnc3ccccc23)s1 [Compound 5] | 15 nM | 1410 nM | 69 nM | 65 nM | 6600 nM | 92% | selectivity for AURKA over FLT3 (AURKA): 100 fold
4 | COCCOc1cc2ncnc(NCCc3cnc(NC(=O)Nc4cccc(Cl)c4)s3)c2cc1OCCOC [Compound 6] | 6 nM | 98 nM | 90 nM | 102 nM | 3500 nM | 70.4% | –
5 | COCCOc1ccc2ncnc(NCCc3cnc(NC(=O)Nc4cccc(Cl)c4)s3)c2c1 [Compound 7] | 10 nM | 1290 nM | 412 nM | 342 nM | 8000 nM | 42% | selectivity for AURKA over FLT3 (AURKA): 100 fold
6 | COCCOc1ccc2c(NCCc3cnc(NC(=O)Nc4cccc(Cl)c4)s3)ncnc2c1 [Compound 8] | 11 nM | 103 nM | 8 nM | 9.5 nM | 2900 nM | 85.9% | solubility (Aqueous solubility): 0.107 µg/mL (≈ 0.214 µM)
7 | CN(C)CCOc1ccc2c(NCCc3cnc(NC(=O)Nc4cccc(Cl)c4)s3)ncnc2c1 [Compound 9] | 17 nM | 58 nM | 40 nM | 57 nM | 3400 nM | 90.1% | –
8 | CN(C)CCCOc1ccc2c(NCCc3cnc(NC(=O)Nc4ccccc4)s3)ncnc2c1 [Compound 11] | – | 94 nM | 8 nM | 21.4 nM | 10900 nM | 75.8% | –
9 | COc1cccc(NC(=O)Nc2ncc(CCNc3ncnc4cc(OCCCN(C)C)ccc34)s2)c1 [Compound 12] | 19 nM | 98 nM | 12.4 nM | 10.9 nM | 9800 nM | 90% | –
10 | COc1ccc(Cl)cc1NC(=O)Nc1ncc(CCNc2ncnc3cc(OCCCN(C)C)ccc23)s1 [Compound 13] | 464 nM | 16 nM | 6.7 nM | 2.1 nM | 5300 nM | 48.6% | selectivity for FLT3 over AURKA (FLT3 [2]): 30 fold
11 | Cc1ccc(Cl)cc1NC(=O)Nc1ncc(CCNc2ncnc3cc(OCCCN(C)C)ccc23)s1 [Compound 14] | 131 nM | 20.5 nM | 12.7 nM | 3.3 nM | 3800 nM | 63% | selectivity for FLT3 over AURKA (FLT3 [2]): ~8 fold
12 | CO[C@@H]1[C@H](N(C)C(=O)c2ccccc2)C[C@H]2O[C@]1(C)n1c3ccccc3c3c4c(c5c6ccccc6n2c5c31)C(=O)NC4 [PKC412] | – | – | – | – | – | – | EC50 (HCC827 cells): 687 nM
13 | CNC(=O)c1cc(Oc2ccc(NC(=O)Nc3ccc(Cl)c(C(F)(F)F)c3)cc2)ccn1 [Sorafenib] | – | – | – | – | – | – | EC50 (RS4-11 cells): 9300 nM; EC50 (H1975 cells): 7010 nM; EC50 (H2228 cells): 7970 nM; EC50 (CL-97 cells): 7050 nM; EC50 (HCT-116 cells): 8800 nM; EC50 (Mia-PaCa2 cells): 7790 nM

Source: article PMC5349910, “Discovery of BPR1K871, a quinazoline based, multi-kinase inhibitor for the treatment of AML and solid tumors: Rational design, synthesis, in vitro and in vivo evaluation” (Oncotarget, 2016)
